One compound from US7687079B2, “Methods of treating ileus” (priority 2002, dated 2010) can be followed below.

SMILES strings stand for the structures. Entries after “also recorded” stand apart in the source; their conditions may differ.

One test concerns IL-6 mRNA. Description: IL-6 mRNA expression in muscularis externae of intestinal grafts. The test is classed as in vivo, rat. Here is the method:
To investigate the sequential analysis of cytokine mRNA expression in the mucosa and muscularis, RNase protection assay was performed with the Riboquant™ kit (Pharmingen) according to the protocol of the manufacturer. […] Quantification of radioactivity of mRNA bands was performed with NIH Image, normalized to GAPDH, and expressed as a ratio of cytokine /GAPDH (n=3-4).
The effects of inhalation of CO on transplant-induced pro-inflammatory and anti-inflammatory gene expression was assessed in muscularis extracts by RT-PCR. […] Equal aliquots (5 μg) of total RNA from each sample were quantified by spectrophotometry (wavelength […]) and aliquoted at a concentration of 40 ng/μl. Peak mRNA expression was quantified in duplicate by SYBR Green two-step, real-time RT-PCR. […] Real-time PCR data were plotted as the ΔRn, fluorescence signal versus the cycle number. […] Quantification of mRNA expression was normalized to GAPDH and calculated relative to control using the comparative CT method (Schmittgen et al., J. Biochem. Biophys. Methods 46(1-2):69-8 (2000)). […]

In another test the test system is IL-10 mRNA. Kind of test: IL-10 mRNA in muscularis after IM (real time RT-PCR). The test is classed as in vivo, mouse. Here is the method:
Pro- and anti-inflammatory gene expression was determined by real time RT-PCR. The small intestinal muscularis externa was collected at 4 time points (3, 6, 12, and 24 hr) postoperatively and snap frozen in liquid nitrogen. Total RNA extraction was performed using the guanidium-thiocyanate phenol-chloroform extraction method as described in Eskandari et al. (Id.) RNA pellets were resuspended in RNA-secure resuspension solution (Ambion Inc., Austin, Tex.), followed by removal of potential contaminating DNA by treatment with DNase I (DNA-Free Kit, Ambion Inc., Austin, Tex.). Equal aliquots (5 μg) of total RNA from each sample were quantified by spectrophotometry (wavelength […]). Peak mRNA expression was quantified in duplicate by SYBR Green two-step, real-time RT-PCR. β-actin was used as the endogenous reference. Aliquoted RNA (40 ng) was subjected to first-strand complementary DNA (cDNA) synthesis using random hexamers (PE applied Biosystems, Foster City, Calif.) and Super Script II (Life Technologies, Rockville, Md.). Primers were taken from the literature or designed according to published sequences (Table 3). PCR reaction mixture was prepared using SYBR Green PCR Core Reagents (PE Applied Biosystems). Each sample was estimated in duplicate using the conditions recommended by the manufacturer. Real-time PCR data were plotted as the ΔRn fluorescence signal versus the cycle number. An arbitrary threshold was set to the midlinear portion of the log ΔRn cycle plot. The threshold cycle (CT) is defined as the cycle number at which the ΔRn, crosses this threshold. Quantification of mRNA expression was normalized to β-actin and calculated relative to control using the comparative CT method.
To exclude PCR amplification of contaminating genomic DNA, RT-negative controls (samples containing RNA which was not reverse transcribed) were included in each PCR reaction. Melting curve analyses were performed for each reaction to ensure amplification of specific product. In addition, gel electrophoresis were performed for the primers to confirm the absence of non-specific bands and that the amplicons were of the correct size. PCR amplification efficiency of each target cDNA was measured by determining the colinearity of serial dilutions. Serial 3-fold dilutions of cDNA were performed in triplicate for all primers. Standard curves were generated by plotting CT values against relative input copy number to validate the primers. Slopes of the standard curves of −3.2±0.3 with correlation coefficients of 0.99 were considered to be acceptable, having corresponding efficiencies of 100±10%. Analyses of Mediator Release from Intestinal Muscularis
A general note: Real-time PCR tracks product formation cycle by cycle.

`[C-]#[O+]` [CO, carbon monoxide]: the “IL-6 mRNA” value in the test on IL-6 mRNA (SITx + CO, Table 2) was 22.3 ± 1.8 % GAPDH. In the test on IL-6 mRNA (SITx recipients treated with CO vs SITx, 4 hours after reperfusion, p=0.084), the “reduction of mean relative IL-6 mRNA expression” value was determined as 40%. Further, in the test on IL-10 mRNA (CO treated manipulated animals, 3 hr time point), the “IL-10 gene expression relative to controls” value was 43 fold. In addition, in the test with IL-10 mRNA (IM + CO vs IM, 3 hr), the “IL-10 gene expression, increase over manipulation alone” value is 300%. For the same compound, the IL-10 message entry in the test with IL-10 mRNA (IM + CO vs IM, 3 hr but not 6 hr after surgery) is recorded as “increased”. For the same compound, in the test with IL-10 mRNA (control mice, CO inhalation alone, 3 and 6 hr), the IL-10 expression result is on record as “significant increase; also recorded: significantly increased”.
